Assay results as given in patent US5652271A, “Therapeutic agents” (Knoll Aktiengesellschaft, priority 1993, dated 1997).
Where a name gives a salt, the structure may show the parent alone. Read-outs that look alike come from different tables or passages of the source.

Experiments:
[1] = test system: ptosis (eye closure) induced by reserpine; assay: prevention of ptosis (eye closure) induced by reserpine in rats; type: in vivo, rat (male, Charles River CD strain)
Excerpt: Male rats of the Charles River CD strain weighing between 140 and 180 g were randomly separated into five rats in each cage and supplied with food and water ad libitum. Eighteen hours prior to initiation of the test four of the five rats were marked with a pen such that each rat was individually identifiable; food was then withdrawn. The following morning, two hours before the test, the rats were weighed and a semi-randomised code was used to allocate treatments to rats. The test commenced by orally administering either:
The degree of ptosis was scored […] later using the following observer rating system: 0=eye fully open, 1=eye 1/4closed, 2=eye 1/2closed, 3=eye 3/4closed, 4=eye fully closed. A mean ptosis score was then calculated for all identically treated rats usually comprising a group of eight rats. […] It is widely understoodby those skilled in the art that this test is indicative of compounds having antidepressant activity in humans.

dopamine reuptake sites = dopamine reuptake sites (Rattus norvegicus, UniProt P23977); assay: inhibition of [3H]dopamine uptake in vitro in rat striatal synaptosomes; type: biochemical, rat (male Charles River); conditions: [3H]dopamine (2.5 nM) uptake, 5 minutes at 37° C.; calculated from IC50; means ± sem of three independent determinations
Protocol: Striatal tissue from the brains of male Charles River rats weighing 150-250 g was homogenised in ice-cold 0.32M sucrose (1:10 w/v) using a motor driven teflon pestle (difference in diameter between mortar and pestle 0.5 mm). Nuclei and cell debris were removed by centrifugation at 1,500 g at 4° C. for 10 minutes. The pellet (P1) was discarded and the supernatant centrifuged at 18,000 g at 4° C. for 10 minutes. The crude synaptosomal pellet (P2) was resuspended in Krebs-Henseleit buffer (equivalent to 4.2 mg wet weight of tissue/ml).
Crude synaptosomes were incubated in a shaking water bath at 37° C. for 15 minutes. Aliquots (150 μl; equivalent to 0.625 mg wet weight of tissue/tube) were then added to tubes containing 275 μl of Krebs-Henseleit buffer and 50 μl of Krebs-Henseleit buffer (total uptake) or 50 μl of test compound (10 concentrations ranging from 10-11-10-4M) or 50 μl of GBR 12909 (10^-5M; non-specific uptake). Uptake was initiated by the addition of 25 μl of freshly prepared [3H]dopamine(2.5 nM), followed by vortexing and was continued for 5 minutes at 37° C. in the shaking water bath.
Uptake was terminated by filtration under vacuum through Skatron 11735 filters using a Skatron cell harvester. Filters were than washed with 8 ml ice-cold saline. The scored filter paper discs were punched into vials, scintillation fluid added and radioactivity determinedby liquid scintillation counting.
The percentage inhibition of specific uptake of the tritiated ligand was calculated for each concentration of test compound. Inhibition curves were then produced. The concentration of compounds which gave 50% inhibition of specific uptake (IC50) was obtained from the curve. The inhibition constant (Ki) was then calculated using the formula [formula] in which [L] is the concentration of tritiated ligand used and Km is the affinity of the uptake site for the ligand. The Ki values for compounds for formula I and III are given in Table 1 as the means ± sem of three independent determinations.

[2] = Rattus norvegicus, po, 3 h, dose causing 50% prevention of reserpine-induced ptosis, test compound oral, reserpine 0.75 mg/kg intravenous, scored three hours later, read-out: ED50

Sequence of dopamine reuptake sites (P23977 whole entry): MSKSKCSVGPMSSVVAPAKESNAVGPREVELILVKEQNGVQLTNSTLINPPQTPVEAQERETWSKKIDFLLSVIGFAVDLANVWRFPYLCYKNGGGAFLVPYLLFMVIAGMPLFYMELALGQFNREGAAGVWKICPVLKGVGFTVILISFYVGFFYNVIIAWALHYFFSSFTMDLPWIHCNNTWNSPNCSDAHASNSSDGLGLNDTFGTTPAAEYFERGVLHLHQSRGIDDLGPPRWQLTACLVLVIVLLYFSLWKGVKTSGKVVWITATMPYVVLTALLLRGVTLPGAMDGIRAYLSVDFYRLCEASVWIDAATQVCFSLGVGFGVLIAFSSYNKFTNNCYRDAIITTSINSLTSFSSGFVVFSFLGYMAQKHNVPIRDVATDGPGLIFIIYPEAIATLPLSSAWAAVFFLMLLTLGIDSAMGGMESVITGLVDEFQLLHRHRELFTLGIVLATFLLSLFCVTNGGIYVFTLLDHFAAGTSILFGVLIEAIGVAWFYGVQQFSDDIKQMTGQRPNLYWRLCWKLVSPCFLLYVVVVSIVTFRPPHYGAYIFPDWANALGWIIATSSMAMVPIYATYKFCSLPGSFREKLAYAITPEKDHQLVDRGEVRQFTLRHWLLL

Ki (dopamine reuptake sites) [nM] | Structure (SMILES) | ED50 ([1]; dose causing 50% prevention of reserpine-induced ptosis, test compound oral, reserpine 0.75 mg/kg intravenous, scored three hours later, citrate) [mg/kg] | ED50 [1, 2] [mg/kg] | ED50 ([1]; Rattus norvegicus, po, 3 h) [mg/kg]
– | CN(C)CCCSCC(O)C1(c2ccc(Cl)c(Cl)c2)CCC1.O=C(O)CC(O)(CC(=O)O)C(=O)O (single isomer, unassigned; (+)) [Example 17, (+)-1-[1-(3,4-dichlorophenyl)cyclobutyl]-2-[3-(dimethylamino)-propylthio]ethanol citrate] | 2.5 | – | –
– | CN(C)CCCSCC(O)C1(c2ccc(Cl)c(Cl)c2)CCC1.O=C(O)CC(O)(CC(=O)O)C(=O)O (single isomer, unassigned; (-)) [Example 16, (-)-1-[1-(3,4-dichlorophenyl)cyclobutyl]-2-[3-(dimethylamino)propylthio]ethanol citrate] | – | 2.2 | –
– | CN(C)CCSCC(=O)C1(c2ccc(Cl)c(Cl)c2)CCC1.Cl [Example 1, 1-[1-(3,4-dichlorophenyl)cyclobutyl]-2-[2-(dimethyl-amino)ethylthio]ethanone hydrochloride] | – | 8.5 | –
– | CN(C)CC[S+]([O-])CC(=O)C1(c2ccc(Cl)c(Cl)c2)CCC1.Cl (stereo not drawn) [Example 2, 1-[1-(3,4-dichlorophenyl)cyclobutyl]-2-[2-(dimethylamino)ethylsulphinyl]ethanone hydrochloride] | – | 7.7 | –
– | CN(C)CCS(=O)(=O)CC(=O)C1(c2ccc(Cl)c(Cl)c2)CCC1.Cl [Example 3, 1-[1-(3,4-dichlorophenyl)cyclobutyl]-2-[2-(dimethylamino)ethylsulphonyl]ethanone hydrochloride] | – | 5.9 | –
– | CCN(CC)CCSCC(=O)C1(c2ccc(Cl)c(Cl)c2)CCC1 [Example 4, 1-[1-(3,4-dichlorophenyl)cyclobutyl]-2-[2-(diethylamino)ethylthio]ethanonehydrochloride] | – | 9.7 | –
– | CN(CCSCC(=O)C1(c2ccc(Cl)c(Cl)c2)CCC1)Cc1ccccc1.Cl [Example 5, 2-[2-(N-benzyl-N-methylamino)ethylthio]-1-[1-(3,4-dichlorophenyl)cyclobutyl]ethanone hydrochloride] | – | 16.4 | –
– | CN(C)CCSCC(O)C1(c2ccc(Cl)c(Cl)c2)CCC1.Cl (stereo not drawn) [Example 6, 1-[1-(3,4-dichlorophenyl)cyclobutyl]-2-[2-(dimethyl-amino)ethylthio]ethanol hydrochloride] | – | 5.7 | –
13.4 ± 0.1 | CN(C)CCCS(=O)(=O)CC(=O)C1(c2ccc(Cl)c(Cl)c2)CCC1.Cl [Example 8, 1-[1-(3,4-dichlorophenyl)cyclobutyl]-2-[3-(dimethylamino)propylsulphonyl]ethanone hydrochloride] | – | 3.4 | –
7.3 ± 1.6 | CN(C)CCCSCC(O)C1(c2ccc(Cl)c(Cl)c2)CCC1 (stereo not drawn) [Example 9, 1-[1-(3,4-dichlorophenyl)cyclobutyl]-2-[3-(dimethylamino)propyl-thio]ethanol] | – | 4.8 | –
7.2 ± 1 | CC(CSCC(=O)C1(c2ccc(Cl)c(Cl)c2)CCC1)CN(C)C (stereo not drawn) [Example 10, 1-[1-(3,4-dichlorophenyl)cyclobutyl]-2-[3-(dimethylamino)-2-methylpropylthio]ethanone] | – | 8.7 | –
– | CN(C)CCSCC(=O)C1(c2ccc3ccccc3c2)CCC1.Cl [Example 11, 2-[2-(dimethylamino)ethylthio]-1-[1-(2-naphthyl)cyclobutyl]ethanone hydrochloride] | – | 24.1 | –
– | CN(C)CCCSCC(=O)C1(c2cccc(Cl)c2)CCC1.Cl [Example 12, 1-[1-(3-chlorophenyl)cyclobutyl]-2-[3-(dimethylamino)propylthio]ethanone hydrochloride] | – | 23.4 | –
6.5 ± 1 | CN(C)CCCCSCC(=O)C1(c2ccc(Cl)c(Cl)c2)CCC1.Cl [Example 13, 1-[1-(3,4-dichlorophenyl)cyclobutyl]-2-[4-(dimethylamino)-butylthio]ethanone hydrochloride] | – | 5.9 | –
13.4 ± 2.1 | CCCN(CCC)CCCSCC(=O)C1(c2ccc(Cl)c(Cl)c2)CCC1 [Example 14, 1-[1-(3,4-dichlorophenyl)cyclobutyl]-2-[3-(dipropylamino)propylthio]ethanone] | – | 7.3 | –
6.9 ± 0.6 | CC(CSCC(O)C1(c2ccc(Cl)c(Cl)c2)CCC1)CN(C)C (stereo not drawn) [Example 19, 1-[1-(3,4-dichlorophenyl)cyclobutyl]-2-[3-(dimethylamino)-2-methylpropylthio]ethanol] | – | 6.9 | –
4.4 ± 0.2 | CN(C)CCCSCC(=O)C1(c2ccc(Cl)c(Cl)c2)CCCC1.Cl [Example 20, 1-[1-(3,4-dichlorophenyl)cyclopentyl]-2-[3-(dimethylamino)propylthio]ethanone hydrochloride] | – | 3.7 | –

Structure (SMILES) | Ki (dopamine reuptake sites) [nM] | ED50 ([1]; dose causing 50% prevention of reserpine-induced ptosis, test compound oral, reserpine 0.75 mg/kg intravenous, scored three hours later, citrate) [mg/kg] | ED50 [1, 2] [mg/kg] | ED50 ([1]; Rattus norvegicus, po, 3 h) [mg/kg]
CN(C)CCCSCC(=O)C1(c2ccc(Cl)c(Cl)c2)CCC1.Cl [Example 7, 1-[1-(3,4-dichlorophenyl)-cyclobutyl]-2-[3-(dimethylamino)propylthio]ethanone hydrochloride] | 5 ± 0.5 | – | 4.2 | –
CN(C)CCCSCC(=O)C1(c2ccc(Cl)c(Cl)c2)CCC1.O=C(O)/C=C/C(=O)O [Example 15, 1-[1-(3,4-dichloro-phenyl)cyclobutyl]-2-[3-(dimethylamino)propylthio]ethanone fumarate] | 3.7 ± 0.4 | – | 4 | –
CN(C)CCCSCC(=O)C1(c2ccc(Cl)c(Cl)c2)CCC1.O=C(O)CC(O)(CC(=O)O)C(=O)O [Example 18, 1-[1-(3,4-dichlorophenyl)cyclobutyl]-2-[3-(dimethylamino)propylthio]ethanone citrate] | 4.2 ± 0.4 | – | – | 4.9
